The values below come from patent US20250288584A1, “COMBINATIONS COMPRISING POSITIVE ALLOSTERIC MODULATORS OR ORTHOSTERIC AGONISTS OF METABOTROPIC GLUTAMATERGIC RECEPTOR SUBTYPE 2 AND THEIR USE” (JANSSEN PHARMACEUTICA NV, priority 2014, published 2025).

In this test the target is T1, human mGlu2 receptor (Homo sapiens, UniProt Q14416).
T1 construct: expressed in transfected cells; host or cells: CHO cells
The test can be described thus: [35S]GTPγS binding assay, mGluR2 PAM. The class given is biochemical. Conditions: for GTPγS-hmGluR2 PAM Emax / Emax: EC20 glutamate; for EC50 / GTPγS-hmGluR2 PAM pEC50: in presence of EC20 glutamate; for EC50: read-out: GTPγS-hmGluR2 PAM pEC50 (converted). On the procedure: The [^35S]GTPγS binding assay is a functional membrane-based assay used to study G-protein coupled receptor (GPCR) function whereby incorporation of a non-hydrolysable form of GTP, [^35S]GTPγS (guanosine 5′-triphosphate, labelled with […] ^35S), is measured.
Cells were then collected by scraping in PBS and cell suspension was centrifuged (10 min at 4000 RPM in benchtop centrifuge). Supernatant was discarded and pellet gently resuspended in 50 mM Tris-HCl, pH 7.4 by mixing with a vortex and pipetting up and down. The suspension was centrifuged at 16,000 RPM (Sorvall RC-5C plus rotor SS-34) for 10 minutes and the supernatant discarded. The pellet was homogenized in 5 mM Tris-HCl, pH 7.4 using an ultra-turrax homogenizer and centrifuged again (18,000 RPM, 20 min, 4° C.). The final pellet was resuspended in 50 mM Tris-HCl, pH 7.4 and stored at-80° C. in appropriate aliquots before use. Protein concentration was determined by the Bradford method (Bio-Rad, USA) with bovine serum albumin as standard.
Measurement of mGluR2 positive allosteric modulatory activity of test compounds was performed as follows. Test compounds and glutamate were diluted in assay buffer containing 10 mM HEPES acid, 10 mM HEPES salt, pH 7.4, 100 mM NaCl, 3 mM MgCl2 and 10 μM GDP. Human mGlu2 receptor-containing membranes were thawed on ice and diluted in assay buffer supplemented with 14 μg/ml saponin. Membranes were pre-incubated with compound alone or together with a predefined (˜EC20) concentration of glutamate (PAM assay) for 30 min at 30° C. After addition of [^35S] GTPγS (f.c. 0.1 nM), assay mixtures were shaken briefly and further incubated to allow [^35S] GTPγS incorporation on activation (30 minutes, 30° C.). Final assay mixtures contained 7 μg of membrane protein in 10 mM HEPES acid, 10 mM HEPES salt, pH 7.4, 100 mM NaCl, 3 mM MgCl2, 10 µM GDP and 2 μg/ml saponin. Total reaction volume was 200 μl. Reactions were terminated by rapid filtration through Unifilter-96 GF/B plates (Perkin Elmer, Massachusetts, USA) using a 96-well filtermate universal harvester. Filters were washed 6 times with ice-cold 10 mM NaH2PO4/10 mM Na2HPO4, pH 7.4. Filters were then air-dried, and 40 μl of liquid scintillation cocktail (Microscint-O) was added to each well. Membrane-bound radioactivity was counted in a Microplate Scintillation and Luminescence Counter from Perkin Elmer.
The concentration-response curves of representative compounds of the present invention-obtained in the presence of EC20 of mGluR2 agonist glutamate to determine positive allosteric modulation (PAM)—were generated using the Lexis software interface (developed at J&J). Data were calculated as % of the control glutamate response, defined as the maximal response that is generated upon addition of glutamate alone. Sigmoid concentration-response curves plotting these percentages versus the log concentration of the test compound were analyzed using non-linear regression analysis. The concentration producing half-maximal effect is then calculated as EC50. The pEC50 values below were calculated as the −log EC50, when the EC50 is expressed in M. Emax is defined as relative maximal effect (i.e. maximal % effect relative to the control glutamate response).
On the technique in general: Binding of GTPγS marks nucleotide exchange on a G protein.

[1] abbreviates: maximal % effect relative to control glutamate response, read-out: GTPγS-hmGluR2 PAM Emax.

Where two headings read alike, the source gives them in different places.

T1 sequence (Q14416 19-872): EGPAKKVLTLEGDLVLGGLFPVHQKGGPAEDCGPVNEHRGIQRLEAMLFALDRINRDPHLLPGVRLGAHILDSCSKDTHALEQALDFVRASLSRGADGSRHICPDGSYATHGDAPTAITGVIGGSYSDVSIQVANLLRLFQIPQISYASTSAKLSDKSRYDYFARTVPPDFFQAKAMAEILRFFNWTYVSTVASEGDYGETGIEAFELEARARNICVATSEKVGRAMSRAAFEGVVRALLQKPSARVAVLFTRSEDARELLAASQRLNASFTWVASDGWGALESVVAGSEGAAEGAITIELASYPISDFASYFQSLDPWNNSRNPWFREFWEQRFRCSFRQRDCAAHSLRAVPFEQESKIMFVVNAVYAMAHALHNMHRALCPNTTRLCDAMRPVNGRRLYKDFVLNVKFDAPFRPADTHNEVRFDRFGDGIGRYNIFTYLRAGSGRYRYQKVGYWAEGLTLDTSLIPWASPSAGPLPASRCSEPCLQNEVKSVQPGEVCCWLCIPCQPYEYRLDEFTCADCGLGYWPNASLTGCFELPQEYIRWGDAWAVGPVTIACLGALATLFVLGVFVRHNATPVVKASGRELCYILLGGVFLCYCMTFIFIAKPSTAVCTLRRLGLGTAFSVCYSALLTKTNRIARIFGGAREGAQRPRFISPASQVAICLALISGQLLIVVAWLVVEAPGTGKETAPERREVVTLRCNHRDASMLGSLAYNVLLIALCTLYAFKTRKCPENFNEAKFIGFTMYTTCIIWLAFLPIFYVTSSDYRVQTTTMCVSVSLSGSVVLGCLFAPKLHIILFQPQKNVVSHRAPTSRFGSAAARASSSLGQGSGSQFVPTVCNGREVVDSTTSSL

In the case of `CC(Oc1ccc(F)cc1)c1ccn2c(CC3CC3)nnc2c1C(F)(F)F` (single isomer, unassigned) [Co. No. 2-b, 3-(Cyclopropylmethyl)-7-[(1*R)-1-(4-fluorophenoxy)ethyl]-8-(trifluoromethyl)[1,2,4]triazolo[4,3-a]pyridine], where the note is “maximal % effect relative to control glutamate response, listed as 2-b”, the “GTPγS-hmGluR2 PAM Emax” value was found to be 228%.

Regarding `CC(Oc1ccc(F)cc1)c1ccn2c(CC3CC3)nnc2c1C(F)(F)F` (single isomer, unassigned) [Co. No. 3-b, 3-(Cyclopropylmethyl)-7-[(1*S)-1-(4-fluorophenoxy)ethyl]-8-(trifluoromethyl)[1,2,4]triazolo[4,3-a]pyridine], the “GTPγS-hmGluR2 PAM Emax” value (maximal % effect relative to control glutamate response, listed as 3-b) was 187%.

As for `CC(Oc1ccc(F)cc1F)c1ccn2c(CC3CCC3)nnc2c1C(F)(F)F` (single isomer, unassigned) [Co. No. 18-b, 3-(Cyclobutylmethyl)-7-[(1*S)-1-(2,4-difluorophenoxy)ethyl]-8-(trifluoromethyl)[1,2,4]triazolo[4,3-a]pyridine], the EC50 was 575 nM. For the same molecule, the maximal response (Emax) under setting [1] was found to be 213%.

In the case of `CCOCc1nnc2c(C(F)(F)F)c(C(C)Oc3ccc(F)cc3F)ccn12` (single isomer, unassigned) [Co. No. 20-b, 7-[(1*R)-1-(2,4-Difluorophenoxy)ethyl]-3-(ethoxymethyl)-8-(trifluoromethyl)[1,2,4]triazolo[4,3-a]pyridine], the “GTPγS-hmGluR2 PAM Emax” value (maximal % effect relative to control glutamate response, listed as 20-b) came to 332%.

As for `CCOCc1nnc2c(C(F)(F)F)c(C(C)Oc3ccc(F)cc3F)ccn12` (single isomer, unassigned) [Co. No. 21-b, 7-[(1*S)-1-(2,4-Difluorophenoxy)ethyl]-3-(ethoxymethyl)-8-(trifluoromethyl)[1,2,4]triazolo[4,3-a]pyridine], the “GTPγS-hmGluR2 PAM Emax” value (maximal % effect relative to control glutamate response, listed as 21-b) amounted to 102%.

Regarding `CCOCc1nnc2c(C(F)(F)F)c(C(C)Oc3c(F)cc(F)cc3F)ccn12` (single isomer, unassigned) [Co. No. 22-b, 3-(Ethoxymethyl)-8-(trifluoromethyl)-7-[(1*R)-1-(2,4,6-trifluorophenoxy)ethyl][1,2,4]triazolo[4,3-a]pyridine], the “GTPγS-hmGluR2 PAM Emax” value (maximal % effect relative to control glutamate response, listed as 22-b) was 325%.

On to `CCOCc1nnc2c(C(F)(F)F)c(C(C)Oc3c(F)cc(F)cc3F)ccn12` (single isomer, unassigned) [Co. No. 23-b, 3-(Ethoxymethyl)-8-(trifluoromethyl)-7-[(1*S)-1-(2,4,6-trifluorophenoxy)ethyl][1,2,4]triazolo[4,3-a]pyridine], for which the “GTPγS-hmGluR2 PAM Emax” value (maximal % effect relative to control glutamate response, listed as 23-b) is given as 167%.

Turning to `CCCc1nnc2c(C(F)(F)F)c(C(C)Oc3ccc(F)cc3F)ccn12` (single isomer, unassigned) [Co. No. 31-b], the EC50 was 89.1 nM. Also, the “GTPγS-hmGluR2 PAM Emax” value (maximal % effect relative to control glutamate response, listed as 31-b) stood at 251%.

Turning to `CCCc1nnc2c(C(F)(F)F)c(C(C)Oc3ccc(F)cc3F)ccn12` (single isomer, unassigned) [Co. No. 32-b], the EC50 was 1950 nM. Moreover, the “GTPγS-hmGluR2 PAM Emax” value (maximal % effect relative to control glutamate response, listed as 32-b) was 116%.

Consider `O=c1c(Cl)c(N2CCC(c3ccccc3)CC2)ccn1CC1CC1` [Co. No. 1-a], for which the EC50 was 166 nM. Moreover, the maximum response (Emax) under setting [1] is 314%.

`CC(Oc1ccc(F)cc1)c1ccn2c(CC3CC3)nnc2c1C(F)(F)F` (stereo not shown) [Co. No. 1-b, 3-(Cyclopropylmethyl)-7-[1-(4-fluorophenoxy)ethyl]-8-(trifluoromethyl)[1,2,4]triazolo-[4,3-a]pyridine]: under setting [1], the maximum response (Emax) was 296%.

For the molecule `O=c1c(Br)c(N2CCC(c3ccccc3)CC2)ccn1CC1CC1` [Co. No. 3-a], under setting [1], the maximum response (Emax) came out at 231%.

`CC1(c2ccc(F)cc2)CCN(Cc2ccn3c(CC4CC4)nnc3c2C(F)(F)F)CC1` [Co. No. 3]: the maximum response (Emax) (read-out: GTPγS-hmGluR2 PAM Emax, maximal % effect relative to control glutamate response) was 212%.

`O=c1c(C(F)(F)F)c(N2CCC(c3ccccc3)CC2)ccn1CC1CC1` [Co. No. 4-a]: the “GTPγS-hmGluR2 PAM pEC50” value came to 6.6. In addition, the maximum response (Emax) under setting [1] was 269%.

In the case of `CC(Oc1ccc(F)cc1F)c1ccn2c(CC3CC3)nnc2c1C(F)(F)F` (stereo not shown) [Co. No. 4-b, 3-(Cyclopropylmethyl)-7-[1-(2,4-difluorophenoxy)ethyl]-8-(trifluoromethyl)[1,2,4]triazolo-[4,3-a]pyridine], the maximal effect (Emax) under setting [1] worked out at 329%.

For the molecule `C[C@@H](Oc1ccc(F)cc1F)c1ccn2c(CC3CC3)nnc2c1C(F)(F)F` [Co. No. 5-b, 3-(Cyclopropylmethyl)-7-[(1R)-1-(2,4-difluorophenoxy)ethyl]-8-(trifluoromethyl)[1,2,4]triazolo[4,3-a]pyridine], the maximal effect (Emax) under setting [1] was found to be 141%.

Take `Fc1ccc(N2CCN(Cc3ccn4c(CC5CC5)nnc4c3Cl)CC2)c(F)c1` [Co. No. 5]: the EC50 was 550 nM. The Emax under setting [1] came to 231%.

As to `N#CC1(c2ccccc2)CCN(c2ccn(CC3CC3)c(=O)c2Cl)CC1` [Co. No. 6-a], the Emax under setting [1] was 255%.

In the case of `CCCCn1ccc(N2CCC(F)(c3ccccc3)CC2)c(Cl)c1=O` [Co. No. 7-a], the EC50 was 229 nM. The maximum response (Emax) under setting [1] was found to be 291%.

For `C[C@H](Oc1cc(F)cc(F)c1)c1ccn2c(CC3CC3)nnc2c1C(F)(F)F` [Co. No. 7-b, 3-(Cyclopropylmethyl)-7-[(1S)-1-(3,5-difluorophenoxy)ethyl]-8-(trifluoromethyl)[1,2,4]triazolo[4,3-a]pyridine], under setting [1], the Emax was found to be 292%.

Consider `CC1(C)OC2(CCN(c3ccn4c(CC5CC5)nnc4c3C(F)(F)F)CC2)c2ccc(F)cc21` [Co. No. 7], for which, under setting [1], the maximal response (Emax) came out at 263%.

As for `O=c1c(C2CC2)c(N2CCC(c3ccccc3)CC2)ccn1CC1CC1` [Co. No. 8-a], the maximum response (Emax) under setting [1] was found to be 157%.

In the case of `C[C@H](Oc1ccc(F)c(F)c1)c1ccn2c(CC3CC3)nnc2c1C(F)(F)F` [Co. No. 8-b, 3-(Cyclopropylmethyl)-7-[(1S)-1-(3,4-difluorophenoxy)ethyl]-8-(trifluoromethyl)[1,2,4]triazolo[4,3-a]pyridine], under setting [1], the maximum response (Emax) came to 244%.

Take `FC(F)(F)c1c(N2CCN(c3ncccn3)CC2)ccn2c(CC3CC3)nnc12` [Co. No. 8]: the EC50 is 186 nM. Also, the maximum response (Emax) under setting [1] was 360%.

Take `CC(C)(O)c1ccc(C2CCN(c3ccn(CC4CC4)c(=O)c3C3CC3)CC2)cc1` [Co. No. 9-a]: the EC50 is 257 nM. Also, the Emax under setting [1] was 222%.

For `C[C@H](Oc1cccc(F)c1F)c1ccn2c(CC3CC3)nnc2c1C(F)(F)F` [Co. No. 9-b, 3-(Cyclopropylmethyl)-7-[(1S)-1-(2,3-difluorophenoxy)ethyl]-8-(trifluoromethyl)[1,2,4]triazolo[4,3-a]pyridine], the Emax under setting [1] came out at 260%.

Take `COc1cnc(N2CCN(c3ccn4c(CC5CC5)nnc4c3C(F)(F)F)CC2)nc1` [Co. No. 9]: the EC50 was 126 nM. For the same molecule, under setting [1], the maximum response (Emax) is 462%.

Consider `O=c1c(Cl)c(N2CCC(c3ccccc3)CC2)ccn1CCC1CC1` [Co. No. 10-a], for which the “GTPγS-hmGluR2 PAM pEC50” value is given as 6.88. The Emax under setting [1] was 290%.

As to `C[C@H](Oc1cc(F)ccc1F)c1ccn2c(CC3CC3)nnc2c1C(F)(F)F` [Co. No. 10-b, 3-(Cyclopropylmethyl)-7-[(1S)-1-(2,5-difluorophenoxy)ethyl]-8-(trifluoromethyl)[1,2,4]triazolo[4,3-a]pyridine], under setting [1], the Emax turned out to be 218%.

With `Fc1ccc(C2CCN(c3ccn4c(CC5CC5)nnc4c3Cl)CC2)c(F)c1` [Co. No. 10], the maximum response (Emax) under setting [1] came to 357%.

On to `CCCCCn1ccc(N2CCC(c3ccccc3)CC2)c(Cl)c1=O` [Co. No. 11-a], for which the “GTPγS-hmGluR2 PAM pEC50” value stood at 7.11. The Emax under setting [1] stood at 249%.

One may read the Emax as the greatest response seen or fitted, relative to the assay's reference.
